Measurements reported in publication PMC12775434, “Ultra-large virtual screening unveils potent agonists of the neuromodulatory orphan receptor GPR139” (Nature Communications, 2025).
Several values for one entry are separate records, joined by “and”; a condition that tells them apart may be missing. Equal values may be shown once.

Experiments:
[1] = molecular target: T1, GPR139 (Homo sapiens, UniProt Q6DWJ6); experiment: Ca2+ mobilization assay, agonist mode, stable GPR139-CHOk1 cell line; type: cell-based
T1 sequence (Q6DWJ6 1-353): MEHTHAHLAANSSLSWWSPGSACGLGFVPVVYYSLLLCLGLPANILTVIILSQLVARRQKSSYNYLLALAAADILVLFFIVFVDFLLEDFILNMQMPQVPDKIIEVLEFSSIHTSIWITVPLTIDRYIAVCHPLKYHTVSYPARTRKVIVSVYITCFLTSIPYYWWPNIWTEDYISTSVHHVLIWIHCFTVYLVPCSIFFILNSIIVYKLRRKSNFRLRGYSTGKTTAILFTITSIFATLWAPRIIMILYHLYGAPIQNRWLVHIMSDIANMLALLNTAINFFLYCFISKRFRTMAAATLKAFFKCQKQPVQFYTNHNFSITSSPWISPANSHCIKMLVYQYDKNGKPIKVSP
Method: Primary screening and pharmacological characterization of compounds were performed using a CHO-K1 cell line that stably expresses human GPR139 (GPR139-CHOk1). The GPR139-CHOk1 cell line was kindly provided by H. Lundbeck A/S, Denmark[24]. GPR139-CHOk1 cells were grown in Ham’s F-12 Kaighn’s Modification Medium (ThermoFisher #21127030) supplemented with 10% dialyzed fetal bovine serum (US origin, ThermoFisher #26400044), 100 units/mL Penicillin-Streptomycin (ThermoFisher #15140122), and 1 mg/mL Geneticin (ThermoFisher #11811031). […] M1R-CHOk1 cells were purchased from The Missouri S&T cDNA Resource Center (#CEM100TN00). M1R-CHOk1 cells were grown in Ham’s F12 Medium (ThermoFisher #21765029) supplemented with 10% fetal bovine serum (Brazilian origin, ThermoFisher #10270106), 100 units/mL Penicillin-Streptomycin, and 0.25 mg/mL Geneticin. HEK293A cells transiently transfected with GPR139 were used for additional pharmacological assessment of signaling pathways activated by GPR139. HEK239A cells were generously provided by Dr. Asuka Inoue, Tohoku University, Japan. HEK293A cells were grown in Dulbecco’s Modified Eagle Medium (ThermoFisher #31966047) supplemented with 10% dialyzed fetal bovine serum and 100 units/mL Penicillin-Streptomycin. Cell lines were maintained at 37 °C in humidified incubator equilibrated with 5% CO2.
(§1) 30,000 GPR139- or M1R-CHOk1 cells/well were seeded in black clear bottom tissue culture treated 96-well plates (Greiner #655090) and grown for 20–24 h. Cells were washed with HEPES buffer (Hank’s Balanced Salt Solution (HBBS) supplemented with 20 mM HEPES, 1 mM MgCl2, and 1 mM CaCl2; pH 7.4). Cells were loaded with 50 µL of 2 µM Fluo-4 AM dye (ThermoFisher #F14202) in HEPES buffer supplemented with 2.5 mM probenecid and 0.01% Pluronic F-68 (ThermoFisher #24040032) for 1 h at 37 °C. Cells were washed with HEPES buffer. 50 µL HEPES buffer supplemented with 2.5 mM probenecid was added, and the cells were incubated for 10 min at 37 °C before measurement. 50 µL test compounds diluted in HEPES buffer from DMSO stocks (final DMSO concentration of maximally 0.3%) were added automatically after baseline measurements. The intracellular calcium mobilization was measured on a FlexStation 3 Multimode Microplate Reader (Molecular Devices) at 37 °C with filters for excitation of 485 nm and emission of 525 nm.
(§2) Our primary compound screening protocol consisted of two subsequent steps that allowed to screen for agonists and antagonists simultaneously. In the first step, the screening compounds were applied at 10 µM to test for agonist activity (agonist mode). Following 20 min incubation with the compounds added in the first step, in the second step, an EC80 concentration (800 nM) of the reference agonist Lundbeck Cmp 1a was applied to test for antagonist activity (antagonist mode).
Pharmacological data and statistical analyses were performed in GraphPad Prism v9–10 (Graphpad Software Inc., San Diego, CA), which are also specifically described in the figure and table legends. The functional assay responses were normalized to buffer (0%) and Lundbeck Cmp 1a or JNJ-63533054 (100%), for Ca^2+ and IP1 experiments in the GPR139-CHOk1 stable cell line or Ca^2+, G protein activation, and arrestin-3 recruitment experiments in the HEK293A cells transiently transfected with GPR139, respectively. Data are from at least three independent experiments, unless stated otherwise. Concentration-response curves were fitted applying non-linear regression using the log (agonist) versus response model with variable slope. ANOVA was applied for comparing results and determining statistical significance.

[2] = molecular target: T1, GPR139; experiment: Ca2+ mobilization assay, antagonist mode (EC80 800 nM Lundbeck Cmp 1a after 20 min preincubation), GPR139-CHOk1; type: cell-based; details: individual replicates (Supplementary Figure 1)
Method: as §1
as §2, with “(antagonist mode). In the agonist mode (first step) response is seen only with compounds having agonist activity (Cmp 1a), but not with non-receptor-binding compounds (Vehicle) or antagonists (NCRW0105-E06) (Supplementary Fig. 14). […] No antagonist compounds were identified in this study.” for “(antagonist mode).”

[3] = Agonist mode, individual replicates (Supplementary Figure 1)
[4] = primary screen, 10 µM compound, agonist mode, three columns = independent experiments

SMILES	Ca2+ signal (% of Cmp 1a) [1, 3]	Ca2+ signal (% of Cmp 1a) [1, 4]	Ca2+ signal (% of Cmp 1a) [2]
CC(O)CN(Cc1ccccc1)C(=O)NCc1ccc(Cl)o1 (centres unmarked) [Compound 19, CC(O)CN(CC=1C=CC=CC1)C(=O)NCC2=CC=C(Cl)O2]	4 % of Cmp 1a and 5 % of Cmp 1a and 6.65 % of Cmp 1a	4 % of Cmp 1a and 5 % of Cmp 1a and 6.65 % of Cmp 1a	78.3598 % of Cmp 1a and 79.4126 % of Cmp 1a and 77.319 % of Cmp 1a
Cc1cccc(-c2nc(C(=O)N3CCc4ncccc43)c(C)[nH]2)c1 [Compound 27, CC=1NC(=NC1C(=O)N2CCC=3N=CC=CC23)C=4C=CC=C(C)C4]	-4.28 % of Cmp 1a and 11 % of Cmp 1a and 2.44 % of Cmp 1a		81.7236 % of Cmp 1a and 71.1235 % of Cmp 1a and 80.4014 % of Cmp 1a
CC(NC(=O)c1occc1COc1ccccc1)c1ccon1 (centres unmarked) [Compound 32, CC(NC(=O)C=1OC=CC1COC=2C=CC=CC2)C=3C=CON3]	-11 % of Cmp 1a and -0.416 % of Cmp 1a and 7 % of Cmp 1a		55.4318 % of Cmp 1a and 73.597 % of Cmp 1a and 97.305 % of Cmp 1a
Cc1ccc(Oc2ccc(NC(=O)C(C)n3cccn3)cn2)cc1 (centres unmarked) [Compound 59, CC(C(=O)NC=1C=CC(OC=2C=CC(C)=CC2)=NC1)N3C=CC=N3]	-2 % of Cmp 1a and -8 % of Cmp 1a and 2.12 % of Cmp 1a		78.8114 % of Cmp 1a and 81.7621 % of Cmp 1a and 78.2182 % of Cmp 1a
Cc1sc2ncn(NC(=O)c3csc4cncn34)c(=O)c2c1C [Compound 23, CC=1SC=2N=CN(NC(=O)C3=CSC4=CN=CN34)C(=O)C2C1C]	-1 % of Cmp 1a and 11 % of Cmp 1a and -1.45 % of Cmp 1a		92.3647 % of Cmp 1a and 68.6585 % of Cmp 1a and 94.6907 % of Cmp 1a
O=C(Nc1ccnc(OCc2ccccc2)c1)C1Cc2ccccc21 (centres unmarked) [Compound 43, O=C(NC=1C=CN=C(OCC=2C=CC=CC2)C1)C3CC=4C=CC=CC34]	0.84 % of Cmp 1a and 9 % of Cmp 1a and 13 % of Cmp 1a		90.3553 % of Cmp 1a and 81.3074 % of Cmp 1a and 78.6074 % of Cmp 1a
O=C(Nc1ccnc(-c2ccccc2)n1)C1COc2ccccc21 (centres unmarked) [Compound 31, O=C(NC=1C=CN=C(N1)C=2C=CC=CC2)C3COC=4C=CC=CC34]	-5 % of Cmp 1a and 0.292 % of Cmp 1a and -0.778 % of Cmp 1a		69.7439 % of Cmp 1a and 83.7645 % of Cmp 1a and 84.6387 % of Cmp 1a
O=C(NCc1cccnc1)c1cn(-c2cccc(Cl)c2)nn1 [Compound 35, ClC=1C=CC=C(C1)N2C=C(N=N2)C(=O)NCC=3C=CC=NC3]	5.3 % of Cmp 1a and 12 % of Cmp 1a and 7.49 % of Cmp 1a		84.5048 % of Cmp 1a and 71.7301 % of Cmp 1a and 84.4533 % of Cmp 1a
COCC1(CNC(=O)NCc2ccccc2)OCCc2ccccc21 (centres unmarked) [Compound 44, COCC1(CNC(=O)NCC=2C=CC=CC2)OCCC=3C=CC=CC31]	8 % of Cmp 1a and -1.67 % of Cmp 1a and 19 % of Cmp 1a		80.8112 % of Cmp 1a and 71.471 % of Cmp 1a and 86.0472 % of Cmp 1a
Cc1noc(-c2ccc(C)c(NC(=O)CSc3nncs3)c2)n1 [Compound 65, CC1=NOC(=N1)C=2C=CC(C)=C(NC(=O)CSC3=NN=CS3)C2]	2.7 % of Cmp 1a and 1.38 % of Cmp 1a and -3.61 % of Cmp 1a		71.2308 % of Cmp 1a and 90.2803 % of Cmp 1a and 89.1818 % of Cmp 1a
CC(C)(NC(=O)Nc1ccccc1)C(=O)Nc1cnc2ccccc2c1 [Compound 20, CC(C)(NC(=O)NC=1C=CC=CC1)C(=O)NC=2C=NC=3C=CC=CC3C2]	2.84 % of Cmp 1a and -2.82 % of Cmp 1a and 13 % of Cmp 1a		73.2682 % of Cmp 1a and 77.4411 % of Cmp 1a and 81.0233 % of Cmp 1a
CC(C(=O)Nc1cccc(-c2nc3ccccc3n2C)c1)n1cccn1 (centres unmarked) [Compound 67, CC(C(=O)NC=1C=CC=C(C1)C2=NC=3C=CC=CC3N2C)N4C=CC=N4]	3.19 % of Cmp 1a and -6 % of Cmp 1a and -7 % of Cmp 1a		87.0817 % of Cmp 1a and 99.3874 % of Cmp 1a and 88.8295 % of Cmp 1a
CC1(C)COc2cc(NC(=O)NCc3cccnn3)ccc21 [Compound 52, CC1(C)COC=2C=C(NC(=O)NCC=3C=CC=NN3)C=CC21]	1.65 % of Cmp 1a and 1.26 % of Cmp 1a and 1.78 % of Cmp 1a	1.65 % of Cmp 1a and 1.26 % of Cmp 1a and 1.78 % of Cmp 1a	71.4617 % of Cmp 1a and 78.215 % of Cmp 1a and 78.5023 % of Cmp 1a
CC(NC(=O)N1CCCCC1c1cnn(C)c1)c1nccs1 (centres unmarked) [Compound 34, CC(NC(=O)N1CCCCC1C=2C=NN(C)C2)C3=NC=CS3]	-1.66 % of Cmp 1a and 6.32 % of Cmp 1a and -6 % of Cmp 1a		69.32 % of Cmp 1a and 71.8073 % of Cmp 1a and 90.0552 % of Cmp 1a
Cn1ccc(CNC(=O)Nc2cc(-c3cc(F)cc(F)c3)nn2C)c1 [Compound 39, CN1C=CC(CNC(=O)NC2=CC(=NN2C)C=3C=C(F)C=C(F)C3)=C1]	-2.56 % of Cmp 1a and -1.6 % of Cmp 1a and -1.54 % of Cmp 1a		63.6266 % of Cmp 1a and 84.5465 % of Cmp 1a and 97.4779 % of Cmp 1a
O=C(CCn1cncn1)Nc1ccc(Oc2ccc(Cl)cc2)nc1 [Compound 66, ClC=1C=CC(OC=2C=CC(NC(=O)CCN3C=NC=N3)=CN2)=CC1]	6.43 % of Cmp 1a and -3.62 % of Cmp 1a and -6 % of Cmp 1a		74.4571 % of Cmp 1a and 74.7932 % of Cmp 1a and 88.8781 % of Cmp 1a
CN(Cc1nnc[nH]1)c1nc(-c2cc(Cl)cc(Cl)c2)no1 [Compound 25, CN(CC1=NN=CN1)C2=NC(=NO2)C=3C=C(Cl)C=C(Cl)C3]	4.25 % of Cmp 1a and 1 % of Cmp 1a and 14 % of Cmp 1a		70.9298 % of Cmp 1a and 72.5727 % of Cmp 1a and 87.7637 % of Cmp 1a
Cc1cc2c(=O)n(CC(O)C(C)c3ccccc3)cnc2cc1F (centres unmarked) [Compound 48, CC(C(O)CN1C=NC=2C=C(F)C(C)=CC2C1=O)C=3C=CC=CC3]	3.29 % of Cmp 1a and 10 % of Cmp 1a and 6 % of Cmp 1a		94.1087 % of Cmp 1a and 84.538 % of Cmp 1a and 82.6111 % of Cmp 1a
